From patent publication US20210269478A1, “ADJUVANT FOR CELL CULTURE” (FUKUSHIMA MEDICAL UNIVERSITY, priority 2018, published 2021)

Key:
[1] = tested on: F9 cells expressing JAM-B and JAM-C; assay: Cell adhesion assay, crystal violet staining of adhered F9 cells; type: cell-based; conditions: coating at 286 ng/cm^2 in 96-well dish; 30 min after adding cells; relative to vehicle defined as 1
Method: JAM-C D1 (286 ng/cm^2) was added to a 96-well plastic culture dish, then F9 stem cells were added thereto, and after 30 min the number of adhered cells was measured with crystal violet staining, while performing no coating as a negative control, and using type I collagen (1,430 ng/cm^2) and rJAM-C (1,430 ng/cm^2) as positive controls. The cell number was expressed as a relative value based on the value of the vehicle defined as 1. Error bar indicates standard deviation. Asterisk(s) indicate the result of the t-test; where * means P<0.05; and *** means P<0.001.
(§1) For each of recombinant soluble JAM-C (polypeptide obtained by linking the Fc region of human IgG1 to the C-terminus of the extracellular domain (Met 1-Asn 241) of human JAM-C; Sino Biological) and murine IgG (GE Healthcare), 20, 100, or 500 ng volume thereof was diluted in 50 μL PBS and disposed into a 96-well round-bottom plate, which was then left standing at 30° C. for 12 hours. As a positive control, 500 ng of collagen Cellmatrix type I-A (Nitta Gelatin Inc.) was processed in the same manner. […]
After washing twice with PBS, ADSCs were detached using a 0.25% trypsin/1 mM EDTA solution and inoculated to the above plate and cultured in a CO2 incubator at 37° C. for 30 min. […] Finally, 50 μL of 5% SDS was used for lysis, and the absorbance was measured at 560 nm wavelength. […]

[2] = tested on: stem cell markers Klf4, Nanog, c-Myc, and Sox2 in ADSCs; assay: Semi-quantitative RT-PCR of stem cell markers in ADSCs cultured on coated dish; type: cell-based, murine
Description: The result was expressed as a relative value based on the value of mIgG defined as 1. Error bar indicates standard deviation. Asterisk(s) indicate the result of the t-test; where * means P<0.05; ** means P<0.01; and *** means P<0.001.
The result was expressed as a relative value with respect to the value of vehicle defined as 1. Error bar indicates standard deviation in three experiments. Asterisk(s) indicate the result of t-test; where * means P<0.05; ** means P<0.01; and *** means P<0.001.
RNA extraction and RT-PCR were performed using a common method previously described (Sugimoto, et al., PLoS One, 2013, 10: e751062013). […] Semi-quantitative PCR was performed using the GoTaq Green Master Mix Kit (Promega) and primers [Sox2 (5′-[…]-3′ (SEQ ID NO: 23), and 5′-[…]-3′ (SEQ ID NO: 24)); c-Myc (5′-[…]-3′ (SEQ ID NO: 25), and 5′-[…]-3′ (SEQ ID NO: 26)); Nanog (5′-[…]-3′ (SEQ ID NO: 27), and 5′-[…]-3′ (SEQ ID NO: 28)); Klf4 (5′-[…]-3′ (SEQ ID NO: 29), and 5′-[…]-3′ (SEQ ID NO: 30)); and Gapdh (5′-[…]-3′ (SEQ ID NO: 31), and 5′-[…]-3′ (SEQ ID NO: 32))] to amplify the target sequences. […] Then the brightness in a region corresponding to the molecular weight of interest was quantified using the ImageJ (National Institute of Health (NIH)) and statistically analyzed.

[3] = tested on: ADSCs (adipose-derived stem cells); assay: Cell proliferation assay, BrdU-positive divided by DAPI-positive cells; type: cell-based, murine
Method: The result was expressed as a relative value based on the value of mIgG defined as 1. Error bar indicates standard deviation. Asterisk(s) indicate the result of t-test; where * means P<0.05; ** means P<0.01; and *** means P<0.001.
The results are shown relative to the total cell number defined as 1. P-value was calculated by a chi-square test (n=353, n=501).
Cells (4×10^4 cells) were inoculated in a 6-well culture dish, and, 24 hours later, treated with 5-bromo-2′-deoxyuridine (BrdU; #B-5002, Sigma-Aldrich) at the final concentration of 10 μM for 2 hours, and then fixed with 4% PFA. Then, the sample was stained according to the method recommended by the manufacturer, and imaged with a fluorescent phase-contrast microscope (OLYMPUS IX71, Olympus Corporation) and a DP Controller. The number of BrdU-positive particles was divided by that of DAPI-positive ones to obtain a proliferated cell number.

[4] = tested on: ADSCs (adipose-derived stem cells); assay: Cell adhesion assay, crystal violet staining of adhered ADSCs; type: cell-based; conditions: coating at 20, 100, and 500 ng per well in 96-well plate; 30 min after adding cells; versus murine IgG control
Method: The rJAM-C, or murine IgG (mIgG) as a negative control (both in 20, 100, and 500 ng (57, 286, and 1,430 ng/cm^2, respectively)), and type I collagen (500 ng) as a positive control were added to a 96-well plastic culture dish, and then ADSCs were added. After 30 min, the number of adhered cells was measured by crystal violet staining, and the relative absorbance was measured. The absorbance was expressed by a relative absorbance based on the result of the vehicle defined as 1. Error bar indicates standard deviation. Asterisk(s) indicate the result of t-test; where * means P<0.05; and *** means P<0.001.
as §1
After washing twice with PBS, ADSCs were detached using a 0.25% trypsin/1 mM EDTA solution and inoculated to the above plate and cultured in a CO2 incubator at 37° C. for 30 min. […] Finally, 50 μL of 5% SDS was used for lysis, and the absorbance was measured at 560 nm wavelength.

For DPRIEWKKI [JAM-C D1], the “adhesion of F9 cells (adhered cell number)” value [1] was “significantly increased”, the “expression of stem cell markers Nanog, Klf4, Sox2, and c-Myc” value ([2]; ADSCs in 6-well dish coated at 52 ng/cm^2, relative to vehicle defined as 1) was “significantly increased” and the “proliferation ability (BrdU-positive / DAPI-positive cells)” value ([3]; ADSCs in 6-well dish coated at 52 ng/cm^2, chi-square test) was “significantly increased”.

B1: rJAM-C: polypeptide obtained by linking the Fc region of human IgG1 to the C-terminus of the extracellular domain (Met 1-Asn 241) of human JAM-C; Sino Biological (protein)
chain: EAVNLKSSNRNPVVHEFESVELSCIITDSQTSDPRIEWKKIQDGQTTYVYFDNKIQGDLAGRTDVFGKTSLRIWNVTRSDSAIYRCEVVALNDRKEVDEITIELIVQVKPVTPVCRIPAAVPVGKTATLQCQESEGYPRPHYSWYRNDVPLPTDSRANPRFQNSSFHVNSETGTLVFNAVHKDDSGQYYCIASNDAGAARCEGQDMEVYDLN
B1 was tested, and the “adhesion of ADSCs (adherent cell number, relative absorbance)” value [4] was “significantly increased”, the “expression of stem cell markers Klf4, Nanog, c-Myc, and Sox2” value ([2]; ADSCs in 12-well dish coated at 132 ng/cm^2, cultured 48 hours, relative to mIgG defined as 1) was “significantly increased” and the “proliferation ability (BrdU-positive / DAPI-positive cells)” value ([3]; ADSCs in 6-well dish coated at 104 ng/cm^2, relative to mIgG defined as 1) was “about 2 fold”.
